# Assay results reported in ChEMBL document CHEMBL4152332, “Discovery and synthesis of novel magnolol derivatives with potent anticancer activity in non-small cell lung cancer” (Eur J Med Chem, 2018).
# Assays:
# NCI-H1975 [1] = assay: Induction of apoptosis in human NCI-H1975 cells assessed as decrease in cyclin D1 level after 24 hrs by Western blot analysis; type: functional, cell-based
# NCI-H1975 [2] = assay: Cell cycle arrest in human NCI-H1975 cells assessed as accumulation at G0/G1 phase at 10 uM after 24 hrs by propidium iodide staining-based flow cytometric analysis (reference value: 56.11%); type: functional
smiles,measurement,setting,value
C=CCc1ccc(O)c(-c2cc(CC=C)cc(CN3CCC(N)CC3)c2O)c1,Activity,NCI-H1975 [1],Dose-dependent effect
same,Activity,NCI-H1975 [2],67.09%
